The values below come from patent publication US20240109898A1, “SUBSTITUTED PYRAZOLO[1,5-A]PYRIMIDINE-7-AMINE DERIVATIVES, COMPOSITIONS AND PHARMACEUTICAL USES THEREOF” (SHANGHAI HAIYAN PHARMACEUTICAL TECHNOLOGY CO., LTD., priority 2021, published 2024).

In general, IC50 refers to the concentration needed to halve the response being measured. Low values mean greater potency in that assay, high ones weaker potency in that assay.

The nature of data set [1]: In vivo pharmacokinetics in mice. Particulars: mouse, plasma, po, male ICR mice, intragastric 10 mg/kg; for AUC(0-t): read-out: Area under the oral curve AUC0-t; for Cmax: read-out: Oral maximum plasma concentration Cmax(ng/mL). The procedure:
To investigate the pharmacokinetic behaviors of the compounds according to the present disclosure in mice and evaluate the pharmacokinetic characteristics thereof, the plasma concentrations of the compounds according to the present disclosure in mice at different time points after intravenous injection and intragastric administration of the compounds were determined by LC/MS/MS.
Experimental Protocol: • Experimental animals: healthy adult male ICR mice (12 mice with body weight of 30-40 g, free water and diet for intravenous injection group, and fasted overnight for intragastric administration group, free water and diet after 4 hours of administration) were provided by Beijing Vital River Laboratory Animal Co. LTD; • Administration route and dosage: the ICR mice were administrated intravenously via the tail vein (2 mg/kg, 5% DMSO, pH 4.5 20% Captisol) and intragastrically (10 mg/kg, 5% DMSO, pH 4.5 20% Captisol).
Blood sample collection: prior to the administration, animals satisfying the experimental requirements were selected, weighed and marked. Before collecting blood samples, the mice were tied together, and the blood of each administrated mouse was collected at the respective scheduled time points (for the intravenous administration, the blood was collected at 0.083 h, 0.25 h, 0.5 h, 1 h, 2 h, 4 h, 6 h, 7.5 h, and 24 h after the administration, respectively, for a total of 9 time points; for the intragastric administration, the blood was collected at 0.083 h, 0.25 h, 0.5 h, 1 h, 2 h, 4 h, 6 h, 7.5 h, and 24 h after the administration, respectively, for a total of 9 time points), about 100 μL of blood was collected from orbit. The blood was transferred to a 1.5 mL tube, which was pre-filled with K2EDTA, centrifuged for 4 minutes (8000 rpm, 4° C.), and the plasma removed within 15 minutes, which all the steps were finished in 15 minutes after the collection of blood samples. All samples were stored in −20° C. refrigerator before sample analysis. The drug concentrations were determined using the LC/MS/MS method, the pharmacokinetic parameters of the compounds of some examples of the present disclosure in mice at the same dosage and administration routes were lists in Table 3: […]

Data set [2] relates to MV4-11 acute myeloid leukemia xenografts. Briefly: In vivo pharmacodynamic assay, MV4-11 subcutaneous xenograft. Particulars: Table 5, oral, once a day. Set-up: species or system BALB/c nude mice. The method, then: In vivo pharmacodynamic assays were performed on (CDX)BALB/c nude mice implanted subcutaneously with MV4-11 acute myeloid leukemia […] xenografts derived from human tumor cell lines.
Experimental protocol: BALB/c nude mice, female, 6-10 weeks old, with weight of approximately 20-23 grams, were maintained in a specific pathogen-free environment, 5 mice in each cage, and 2 cages with 10 mice as one group. All the cages, bedding and water were disinfected before use. All animals had free access to a standard certified commercial laboratory diet. […] Each mouse was implanted subcutaneously with tumor cells (1×10^7 0.1 ml+Matrigel 0.1 ml) in the right flank for tumor growth. When the mean tumor volume reached approximately 165 mm^3, the tumors were randomly grouped according to body weight and tumor volume, and the administration of the compounds began. Test compounds were administered via oral gavage daily. Antitumor efficacy was determined by dividing the mean tumor volume increase of the animals treated with the compound by the mean tumor volume increase of untreated animals.
Tumor volumes were measured twice a week with two-dimensional calipers, and volumes were measured in cubic millimeters. Tumor volume TV=0.5a×b^2, where a represent a long diameter of the tumor and b represents a short diameter of the tumor.
Relative tumor proliferation rate T/C (%), i.e., a percentage value of relative tumor volume of treatment group to relative tumor volume of control group at a certain time point, can be calculated based on an equation of T/C %=TRTV/CRTV×100 (TRTV: mean RTV in treatment group; CRTV: mean RTV in solvent control group; RTV=Vt/V0, V0 being the tumor volume of the animal at the time of grouping, Vt being the tumor volume of the animal after treatment).
Body weight change (%) of tumor-bearing animals was calculated as follows:
(weight at measurement−weight at grouping)/weight at grouping×100.

The next data set concerns the target CDK9/CycT (Homo sapiens (Human), UniProt P50750). Description: LANCE Ultra kinase activity inhibition assay, CDK9/CycT. In kind it is biochemical. The following applies: ATP 10 μM, highest compound concentration 1 μM. The method, then:
(§1) In the following LANCE Ultra test methods, kinase reagents were purchased from Carna Bioscience, reaction substrates and detection reagents were purchased from PerkinElmer, and the remaining reagents were purchased from Thermo scientific.
The inhibiting effects on the kinase activity of CDK1/CycB (Carna bioscience, #04-102), CDK2/CycA (Carna bioscience, #04-103) and CDK9/CycT (Carna bioscience, #04-110) were determined by using LANCE Ultra method.
The kinase activity test was performed using a system (10 μL) containing the following components: substrate diluent prepared by mixing CDK kinase diluent, Ulight-Myelic basic protein (Perkin Elmer, #TRF-0109, hereinafter referred to as U-MBP) and ATP (Thermo scientific, #PV3227); and the compounds (i.e., analyte) prepared in the examples of the present disclosure. The assay for each kinase includes three test groups, i.e., a background group (Blank), a non-inhibition group (PC), and compound testing group (Test). The components included in each test group were as follows:
(§2) Working concentrations of the respective components of the Test groups in different kinase reactions were as follows.
(§3) Compounds: 10 mM of the compound to be tested was dissolved at room temperature and diluted with DMSO to gradient concentrations, followed by diluting with deionized water to prepare a 4× working solution of the compound, and the content of DMSO was 2%. The highest concentration of compound used in the CDK1 and CDK2 assays was 10 μM, and that in CDK9 assay was 1 μM.
1.33×reaction buffer: the components include 26.7 mM of MOPS, 6.67 mM of MgCl2, and 0.0133% Tween-20, which were stored in a 4° C. refrigerator and protected from light after preparation. Freshly prepared DTT was added to a final concentration of 5.33 mM before use.
(§4) The working concentration of DMSO in the reaction was 0.5%.
(§5) The above-mentioned components, after being mixed, were placed on a shaker and incubated at room temperature in the dark for 1 h. 10 μL of test solution was then added to all test groups (including Blank, PC and Test groups).
10 μL of test solution contains the following components: 16 mM of EDTA (Thermo scientific, #15575), 1 nM of phosphorylated U-MBP protein antibody (Perkin Elmer, #TRF-0201), and 1× detection damping fluid (Perkin Elmer, #CR97-100).
After the test solution was added, the solution was placed on a shaker and continually incubated at room temperature for 1 h in the dark. At the end of incubation, Victor X5 fluorescence microplate reader of Perkin Elmer was used to read the signal; the wavelength of excitation light was 320 nm, and the wavelengths of emission light were 615 nm and 665 nm. The inhibition rate was calculated as below.
1. For all groups, a value of 665 nm/615 nm (hereinafter referred to as Ratio) was calculated, and an inhibition rate was calculated based on the Ratio of each group;
(§6) 2. Inhibition rate=(PCRatio-TestRatio)/(PCRatio-BlankRatio)*100%; and
(§7) 3. XLFIT 5.0 software (IDBS, UK) was used to fit a graph by using the logarithmic value of the compound concentration as the X-axis and the inhibition rater as the Y-axis, and a four-parameter model was used to calculate the half inhibitory concentration IC50 of the compound.

In a further data set the target is CDK2/CycA (Homo sapiens (Human), UniProt P24941). Description: LANCE Ultra kinase activity inhibition assay, CDK2/CycA. It counts as biochemical. The following applies: ATP 10 μM, highest compound concentration 10 μM.
From the text: as §1
(§8) The assay for each kinase includes three test groups, i.e., a background group (Blank), a non-inhibition group (PC), and compound testing group (Test). The components included in each test group were as follows:
as §2, §3, §4, §5
(§9) After the test solution was added, the solution was placed on a shaker and continually incubated at room temperature for 1 h in the dark. […] The inhibition rate was calculated as below.
as §6, §7
On the technique in general: TR-FRET usually uses a lanthanide donor and a delayed reading to cut background.

In the next data set the target is CDK1/CycB (Homo sapiens (Human), UniProt P06493). Description: LANCE Ultra kinase activity inhibition assay, CDK1/CycB. It counts as biochemical. The following applies: ATP 4 μM, highest compound concentration 10 μM.
From the text: as §1, §8, §2, §3, §4, §5, §9, §6, §7

CDK9/CycT, sequence (P50750 whole entry): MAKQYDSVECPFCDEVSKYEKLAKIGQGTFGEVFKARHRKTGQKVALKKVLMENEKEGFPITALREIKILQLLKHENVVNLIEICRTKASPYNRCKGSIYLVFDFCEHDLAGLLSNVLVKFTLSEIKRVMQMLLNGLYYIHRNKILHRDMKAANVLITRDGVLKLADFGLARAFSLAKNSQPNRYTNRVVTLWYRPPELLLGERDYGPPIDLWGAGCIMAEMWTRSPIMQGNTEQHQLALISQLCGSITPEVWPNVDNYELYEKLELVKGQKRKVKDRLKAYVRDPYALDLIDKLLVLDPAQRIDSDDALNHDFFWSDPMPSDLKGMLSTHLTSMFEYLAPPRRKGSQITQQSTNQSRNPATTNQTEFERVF
CDK9/CycT, sequence (O60563 whole entry partner): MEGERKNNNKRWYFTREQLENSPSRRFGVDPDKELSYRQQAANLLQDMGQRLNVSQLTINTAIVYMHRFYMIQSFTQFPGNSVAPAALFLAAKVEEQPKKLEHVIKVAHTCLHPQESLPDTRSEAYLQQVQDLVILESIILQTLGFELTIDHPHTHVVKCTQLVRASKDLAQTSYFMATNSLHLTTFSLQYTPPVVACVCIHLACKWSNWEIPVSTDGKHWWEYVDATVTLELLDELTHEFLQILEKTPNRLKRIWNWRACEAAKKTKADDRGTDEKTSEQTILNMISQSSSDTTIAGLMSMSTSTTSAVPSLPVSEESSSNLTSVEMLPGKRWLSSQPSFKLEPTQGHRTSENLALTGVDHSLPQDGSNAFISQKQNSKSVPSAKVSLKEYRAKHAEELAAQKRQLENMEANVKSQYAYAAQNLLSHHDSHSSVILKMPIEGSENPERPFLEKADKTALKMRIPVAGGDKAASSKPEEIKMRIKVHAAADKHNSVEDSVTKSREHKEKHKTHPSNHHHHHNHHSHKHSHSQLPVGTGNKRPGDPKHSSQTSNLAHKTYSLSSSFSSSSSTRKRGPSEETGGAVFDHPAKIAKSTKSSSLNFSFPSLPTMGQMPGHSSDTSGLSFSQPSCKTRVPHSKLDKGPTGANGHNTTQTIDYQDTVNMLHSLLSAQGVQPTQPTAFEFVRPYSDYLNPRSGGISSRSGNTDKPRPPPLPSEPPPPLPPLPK
CDK1/CycB, sequence (P06493 whole entry): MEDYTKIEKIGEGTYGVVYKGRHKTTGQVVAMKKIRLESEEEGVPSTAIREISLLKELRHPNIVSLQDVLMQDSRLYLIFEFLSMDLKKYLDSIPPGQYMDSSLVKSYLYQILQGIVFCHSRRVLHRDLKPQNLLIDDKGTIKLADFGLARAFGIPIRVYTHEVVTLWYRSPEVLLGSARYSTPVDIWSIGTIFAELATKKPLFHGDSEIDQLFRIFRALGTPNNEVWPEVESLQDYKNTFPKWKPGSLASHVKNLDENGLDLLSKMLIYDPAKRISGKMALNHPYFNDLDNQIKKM
CDK1/CycB, sequence (P14635 whole entry partner): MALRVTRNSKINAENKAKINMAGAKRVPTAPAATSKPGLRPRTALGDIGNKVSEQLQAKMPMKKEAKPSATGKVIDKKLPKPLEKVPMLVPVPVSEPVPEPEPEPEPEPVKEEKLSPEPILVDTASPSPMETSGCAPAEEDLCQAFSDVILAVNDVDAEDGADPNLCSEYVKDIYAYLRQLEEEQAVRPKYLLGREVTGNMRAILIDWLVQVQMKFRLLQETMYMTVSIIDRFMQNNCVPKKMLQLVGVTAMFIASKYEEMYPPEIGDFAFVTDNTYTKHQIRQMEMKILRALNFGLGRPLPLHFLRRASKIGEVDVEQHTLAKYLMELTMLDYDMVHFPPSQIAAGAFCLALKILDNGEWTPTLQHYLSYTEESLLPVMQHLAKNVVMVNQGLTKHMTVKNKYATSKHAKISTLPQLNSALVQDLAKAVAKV

For the molecule `CCC(CC)c1cc(N[C@H]2CC[C@H](N)C2)n2nccc2n1` [Compound D, reference compound], in data set [1], the AUC(0-t) was 1190 ng·h/mL and the Cmax stood at 433 ng/mL. In addition, in data set [2] (12.5 mpk), the “Average tumor weight” value came to 0.43 g and the “T/C(%)” value is reported as 35.91%. Further, in data set [2] (25 mpk), the “Average tumor weight” value came to 0.04 g and the “T/C(%)” value amounted to 2.90%.
As for `C[C@H](c1cc(N[C@H]2CC[C@H](N)C2)n2nccc2n1)C1CC1` [Compound Z-5-2], in data set [1], the AUC(0-t) stood at 1700 ng·h/mL and the Cmax was 690 ng/mL. In data set [2] (5 mpk), the “Average tumor weight” value worked out at 0.72 g and the “T/C(%)” value was 59.25%. In addition, in data set [2] (10 mpk), the “Average tumor weight” value came to 0.04 g and the “T/C(%)” value came to 3.45%. For the same molecule, the IC50 against CDK9/CycT was 0.007 µM.
For `Cc1cnn2c(N[C@H]3CC[C@H](N)C3)cc(C(C3CC3)C3CC3)nc12` [Compound Z-9], the AUC(0-t) in data set [1] is 7860 ng·h/mL. In data set [1], the Cmax came to 740 ng/mL. In addition, the IC50 against CDK2/CycA stood at 1.55 µM; on CDK1/CycB it was 1.04 µM; at CDK9/CycT it was 0.008 µM.
Take `C[C@H](c1cc(N[C@H]2CC[C@H](N)C2)n2nccc2n1)C1CCC1` [Compound Z-11-P1]: in data set [1], the AUC(0-t) is 2960 ng·h/mL and the Cmax is 379 ng/mL.
In the case of `Cc1cnn2c(N[C@H]3CC[C@H](N)C3)cc([C@@H](C)C3CC3)nc12` [Compound Z-32-P2], the AUC(0-t) in data set [1] is 9410 ng·h/mL. Besides, the Cmax in data set [1] was 696 ng/mL. Also, the figures for the IC50 against CDK2/CycA, at CDK1/CycB and on CDK9/CycT were 6.82 µM, 8.22 µM and 0.056 µM, respectively.
On to `C=CC(C)(C)c1cc(N[C@H]2CC[C@H](N)C2)n2ncc(Cl)c2n1` [Compound Z-56], for which the AUC(0-t) in data set [1] came out at 6090 ng·h/mL. Besides, the Cmax in data set [1] was 409 ng/mL. Further, the IC50 at CDK2/CycA came to 3.78 µM; on CDK1/CycB it was 2.48 µM; on CDK9/CycT, 0.013 µM.
Taken in the same sequence, the figures for `C[C@H](c1cc(N[C@H]2C[C@H](N)C2)n2nccc2n1)C1CC1` [Compound Z-62-P1] were 2060 ng·h/mL, 786 ng/mL, 1.97 µM, 1.71 µM and 0.01 µM.
For `CC(=N)N[C@H]1CC[C@H](Nc2cc(C(C3CC3)C3CC3)nc3c(C(F)(F)F)cnn23)C1` [Compound Z-68], the values for the IC50 on CDK2/CycA, at CDK1/CycB and on CDK9/CycT were 4.68 µM, 3.47 µM and 0.025 µM, respectively.
The like results for `CCC(c1cc(N[C@H]2CC[C@H](NC(C)=N)C2)n2nccc2n1)C1CC1` (some centres unmarked) [Compound Z-69] were, in that order, greater than 10 µM, greater than 10 µM and 0.058 µM.
Take `N[C@H]1CC[C@H](Nc2cc(C(F)C3CCC3)nc3ccnn23)C1` (some centres unmarked) [Compound Z-70]: the results for the IC50 against CDK2/CycA, at CDK1/CycB and against CDK9/CycT were 3.88 µM, 2.26 µM and 0.023 µM, respectively.
`CC(c1cc(N[C@H]2CC[C@H](NC(=N)N)C2)n2ncc(F)c2n1)C1CC1` (some centres unmarked) [Compound Z-71]: the IC50 against CDK2/CycA was 4.53 µM; against CDK1/CycB, 1.88 µM; at CDK9/CycT, 0.028 µM.
Consider `CC(=N)N[C@H]1CC[C@H](Nc2cc(C(C)C3CC3)nc3c(F)cnn23)C1` (some centres unmarked) [Compound Z-72], for which the IC50 came to 6.57 µM against CDK2/CycA, 4.89 µM against CDK1/CycB and 0.02 µM against CDK9/CycT.
The like results for `CC(=N)N[C@H]1CC[C@H](Nc2cc(C(C3CC3)C3CC3)nc3c(F)cnn23)C1` [Compound Z-73] were, in that order, 3.68 µM, 2.57 µM and 0.018 µM.
The like results for `CC(c1cc(N[C@H]2C[C@@H](N)C2)n2nccc2n1)C1CC1` (some centres unmarked) [Compound Z-74] were, in that order, greater than 10 µM, greater than 10 µM and 0.417 µM.
